According to PMC9281089 (Journal of Translational Medicine, 2022):
Where “and” joins values, the source holds several entries; their conditions need not be identical. Equal entries are not always repeated. Structures can show the parent of a compound that is named as a salt.

What was measured:
[1] = molecular target: SARS-CoV-2 S-protein RBD / ACE2 interaction (UniProt P0DTC2+Q9BYF1); assay: biochemical; parameters: species or system SARS-CoV-2 / human; details: EC50 (HTRF), inhibition of binding of S-RBD to ACE2
[2] = system: cells

SMILES	EC50 [1]	cytotoxicity (comparative) ([2]; compared with tannic acid and nafamostat mesilate)	cytotoxicity to cells ([2]; at a high concentration (> 30 µM))	cytotoxicity at effective concentration ([2]; when the effective concentration is applied)
N=C(N)c1ccc2cc(OC(=O)c3ccc(N=C(N)N)cc3)ccc2c1 [Nafamostat mesylate, reference compound]	11.3 µM			
COc1ccc2c3ccnc4ccc(=O)n(c2c1)c43 [TS-984, 9-Methoxycanthin-6-one]	36.2 µM	lower cytotoxicity		
O=C1c2ccccc2C(=O)c2ccccc21 [TS-1276, anthraquinone]	55.9 µM and 16.4 µM			
O=C(OC[C@H]1O[C@@H](OC(=O)c2cc(O)c(O)c(OC(=O)c3cc(O)c(O)c(O)c3)c2)[C@H](OC(=O)c2cc(O)c(O)c(OC(=O)c3cc(O)c(O)c(O)c3)c2)[C@@H](OC(=O)c2cc(O)c(O)c(OC(=O)c3cc(O)c(O)c(O)c3)c2)[C@@H]1OC(=O)c1cc(O)c(O)c(OC(=O)c2cc(O)c(O)c(O)c2)c1)c1cc(O)c(O)c(OC(=O)c2cc(O)c(O)c(O)c2)c1 [tannic acid, reference compound]			strong cytotoxicity	higher cytotoxicity that leads to cell death
